Assay results as given in patent publication US10051861B2, “N-arylamidine-substituted trifluoroethyl sulfide derivatives as acaricides and insecticides” (BAYER CROPSCIENCE AG, priority 2011, dated 2018).

tested on: greenhouse red spider mite (Tetranychus urticae); experiment: Tetranychus urticae spray test, OP-resistant (TETRUR), bean leaf disks; type: in vivo; conditions: Tetranychus urticae, foliar, 144 h, application rate 500 g/ha, after 6 days; read-out: efficacy (spider mites killed)
Description: After 6 days, the effect in % is determined.

| Structure (SMILES) | pest or weed control at 500 g/ha [%] |
| --- | --- |
| CN/C(=N\c1cc(SCC(F)(F)F)c(Cl)cc1Cl)c1ccc(C(F)(F)F)nc1 [Ia-264] | 90 |
| CN/C(=N\c1cc(SCC(F)(F)F)c(C)cc1C)c1cccc(Cl)c1 [Ia-265] | 90 |
| N/C(=N\c1cc(SCC(F)(F)F)c(Cl)cc1Cl)c1ccc(Cl)cc1 [Ia-266] | 90 |
| Cc1cc(C)c(SCC(F)(F)F)cc1/N=C(\NCC(F)(F)F)C1CCC1 [Ia-267] | 90 |
| Cc1cc(F)c(/N=C(/c2cccnc2)N2CCC(F)(F)CC2)cc1SCC(F)(F)F [Ia-269] | 90 |
| Cc1cc(F)c(/N=C(/c2ccc(Cl)cc2)N2CCC(F)(F)CC2)cc1SCC(F)(F)F [Ia-270] | 90 |
| Cc1cc(C)c(SCC(F)(F)F)cc1/N=C1\SCC(=O)N1CC(F)(F)F [Ia-272] | 100 |
| Cc1cc(Cl)c(/N=C2\SCC(=O)N2CC(F)(F)F)cc1SCC(F)(F)F [Ia-275] | 100 |
| Cc1cc(F)c(/N=c2\scc(C3(Cl)CC3)n2CC(F)(F)F)cc1SCC(F)(F)F [Ia-276] | 100 |
| Cc1cc(F)c(/N=C(\N)C2(Cl)CC2)cc1[S+]([O-])CC(F)(F)F (stereo not drawn) [Ib-22] | 100 |
| CCN(C)/C(=N/c1cc([S+]([O-])CC(F)(F)F)c(C)cc1F)C(F)(F)F (stereo not drawn) [Ib-23] | 90 |
| CN(C)/C(=N/c1cc([S+]([O-])CC(F)(F)F)c(Br)cc1Br)C(F)(F)F (stereo not drawn) [Ib-25] | 100 |
| CN(C)/C(=N/c1cc([S+]([O-])CC(F)(F)F)c(Cl)cc1Cl)C(F)(F)F (stereo not drawn) [Ib-26] | 100 |
| CN/C(=N\c1cc([S+]([O-])CC(F)(F)F)c(C)cc1F)c1cccnc1 (stereo not drawn) [Ib-28, N′-{2-Fluoro-4-methyl-5-[(2,2,2-trifluoroethyl)sulfinyl]phenyl}-N-methylpyridine-3-carboximidamide] | 100 |
| Cc1cc(F)c(/N=C(/NCC2CC2)C(F)(F)F)cc1[S+]([O-])CC(F)(F)F (stereo not drawn) [Ib-29] | 100 |
| Cc1cc(Cl)c(/N=C(\N)C(F)(F)C(F)(F)Cl)cc1[S+]([O-])CC(F)(F)F (stereo not drawn) [Ib-31] | 100 |
| CN(C)/C(=N/c1cc([S+]([O-])CC(F)(F)F)c(Cl)cc1F)C(F)(F)F (stereo not drawn) [Ib-32] | 100 |
| CCN(CC)/C(=N/c1cc([S+]([O-])CC(F)(F)F)c(C)cc1F)C(F)(F)F (stereo not drawn) [Ib-34] | 100 |

| Structure (SMILES) | pest or weed control at 500 g/ha [%] |
| --- | --- |
| Cc1cc(F)c(/N=C(/NC2(C)CC2)C(F)(F)F)cc1[S+]([O-])CC(F)(F)F (stereo not drawn) [Ib-36] | 100 |
| CN/C(=N\c1cc([S+]([O-])CC(F)(F)F)c(C)cc1F)c1ccc(Cl)cc1 (stereo not drawn) [Ib-37] | 100 |
| CN/C(=N/c1cc([S+]([O-])CC(F)(F)F)c(Cl)cc1F)C(F)(F)F (stereo not drawn) [Ib-41] | 90 |
| Cc1cc(F)c(/N=C(\N)c2ccccn2)cc1[S+]([O-])CC(F)(F)F (stereo not drawn) [Ib-45] | 100 |
| CCN/C(=N\c1cc([S+]([O-])CC(F)(F)F)c(C)cc1F)C1CC1 (stereo not drawn) [Ib-46] | 100 |
| Cc1cc(F)c(/N=C(/NC(C)(C)C)C(F)(F)F)cc1[S+]([O-])CC(F)(F)F (stereo not drawn) [Ib-50] | 100 |
| Cc1cc(F)c(/N=C(/C2CC2)N(C)C)cc1[S+]([O-])CC(F)(F)F (stereo not drawn) [Ib-51] | 100 |
| Cc1cc(F)c(/N=C2\CCCCN2C)cc1[S+]([O-])CC(F)(F)F (stereo not drawn) [Ib-52] | 100 |
| Cc1cc(F)c(/N=C(\N)C2CC2)cc1[S+]([O-])CC(F)(F)F (stereo not drawn) [Ib-53] | 100 |
| Cc1cc(F)c(/N=C(/NC2COC2)C(F)(F)F)cc1[S+]([O-])CC(F)(F)F (stereo not drawn) [Ib-54] | 90 |
| Cc1cc(F)c(/N=C(\c2ccc(F)cc2)N(C)C)cc1[S+]([O-])CC(F)(F)F (stereo not drawn) [Ib-60] | 90 |
| Cc1cc(F)c(/N=C(\c2ccc(C#N)cc2)N(C)C)cc1[S+]([O-])CC(F)(F)F (stereo not drawn) [Ib-61] | 100 |
| Cc1cc(F)c(/N=C(\N)c2cccnc2)cc1[S+]([O-])CC(F)(F)F (stereo not drawn) [Ib-63] | 100 |
| N/C(=N\c1cc([S+]([O-])CC(F)(F)F)c(Cl)cc1Cl)C1(Cl)CC1 (stereo not drawn) [Ib-64] | 100 |
| Cc1cc(F)c(/N=C(\N)c2ccncn2)cc1[S+]([O-])CC(F)(F)F (stereo not drawn) [Ib-65] | 100 |
| Cc1cc(F)c(/N=C(\c2cccc(F)c2)N(C)C)cc1[S+]([O-])CC(F)(F)F (stereo not drawn) [Ib-66] | 90 |
| CN/C(=N/c1cc([S+]([O-])CC(F)(F)F)c(C)cc1F)c1cccc(F)c1 (stereo not drawn) [Ib-67] | 90 |
| N/C(=N\c1cc([S+]([O-])CC(F)(F)F)c(Cl)cc1Cl)c1ccncn1 (stereo not drawn) [Ib-69] | 100 |

same assay, conditions: Tetranychus urticae, foliar, 144 h, read-out: efficacy (spider mites killed)

| Structure (SMILES) | pest or weed control at 500 g/ha [%] |
| --- | --- |
| Cc1cc(F)c(/N=C2/NCCS2)cc1SCC(F)(F)F [Ia-238, 2-Fluoro-4-methyl-N-[1,3-thiazolidin-2-ylidene]-5-[(2,2,2-trifluoroethyl)sulfanyl]aniline] | 100 |
| Cc1cc(F)c(/N=C2\NCCO2)cc1SCC(F)(F)F [Ia-243] | 90 |
| COc1cc(C)c(SCC(F)(F)F)cc1/N=C(/c1ccc(Cl)cc1)N1CCOCC1 [Ia-268, N-[(4-Chlorophenyl)(morpholin-4-yl)methylene]-2-methoxy-4-methyl-5-[(2,2,2-trifluoroethyl)sulfanyl]aniline] | 90 |
